molecular target: T1, RORγ (Homo sapiens, UniProt P51449); assay: RORγ GAL4 reporter gene assay (luciferase readout, 293FT cells); assay type: cell-based; details: inhibition of RORγ (GAL4-RORγ-LBD) in transfected 293FT cells, luciferase signal, overnight incubation; read-out: mean pIC50 (converted)
T1 construct: expressed in transfected cells; host or cells: 293FT cells (Invitrogen), expression vector pFN26A (Promega)
T1 sequence (P51449 269-508 limits assumed): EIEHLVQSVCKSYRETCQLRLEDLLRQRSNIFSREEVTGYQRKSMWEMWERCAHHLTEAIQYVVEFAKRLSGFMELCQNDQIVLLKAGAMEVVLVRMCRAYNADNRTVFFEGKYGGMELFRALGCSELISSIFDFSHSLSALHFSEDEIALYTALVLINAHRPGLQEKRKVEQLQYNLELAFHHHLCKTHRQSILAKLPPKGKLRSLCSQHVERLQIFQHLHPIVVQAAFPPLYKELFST
Experimental: RORγ GAL4 Reporter Gene Assay
Example inhibitors 1-47 were tested for their ability to inhibit RORγ activity in a RORγ GAL4 reporter gene assay. The assay procedure and results are described below.
RORγ GAL4 Reporter Gene Assay Description
A GAL4 one-hybrid reporter system employing luciferase readout was established to determine inhibition of RORγ in 293FT cells. The RORγ ligand-binding domain (LBD) was fused to the yeast GAL4 DNA binding domain (DBD) and placed under the control of the human cytomegalovirus (CMV) immediate early promoter, using expression vector pFN26A (Promega) and standard recombinant DNA cloning methods. To serve as a control in the assay, a similar vector was generated in which the GAL4-DBD was fused to Herpes simplex virus protein 16 (VP16), a constitutive transcriptional activator.
To monitor the inhibitory effect of compounds on RORγ, a transcriptional reporter construct was used. The pGL4.35 vector (Promega) contains nine copies of the GAL4 Upstream Activator Sequence (UAS). This sequence drives the transcription of the luciferase reporter gene luc2P in response to binding of a fusion protein containing the GAL4 DNA binding domain, as for example expressed by the GAL4-RORγ-LBD and GAL4-VP16 expression vectors described above. To allow a GAL4 fusion protein to drive the expression of the luciferase reporter, the pGL4.35 expression vector and the appropriate GAL4 fusion protein expression vector were bulk transfected in the 293FT cells using standard transfection techniques.
The day after transfection, cells were plated into 96 well plates, test compound was added and the plates were incubated overnight. Subsequently, the firefly luciferase activity was quantified using luciferase detection reagent and luminescence readout.
Detailed Assay Description
293FT cells (Invitrogen) were transfected with a GAL4 fusion protein expression vector (as described above) and the transcriptional reporter construct (pGL4.35, Promega). 60 μL of TransIT-293 transfection reagent (Mirus Bio) was added drop wise to 1500 μl Opti-MEM I Reduced Serum Medium (Invitrogen) and incubated at room temperature (RT) for 5 to 20 minutes. 1500 μL of this reagent mixture was added to 5 μg of GAL4 fusion protein expression vector and 5 μg of the transcriptional reporter construct, and incubated at RT for 20 minutes.
To harvest 293FT cells from a T75 flask, first the culture medium was taken off the cells. Subsequently, the cells were washed with Phosphate Buffered Saline (PBS) (Lonza), after which the PBS was removed. To dissociate the cells, 1 ml of TrypLE Express (Invitrogen) was added to the flask, followed by incubation at RT until the cells visually started to detach. Cells were collected in 5 mL of assay medium (DMEM culture medium (Lonza), 10% dialyzed FBS (Invitrogen) and Pen/Strep (Lonza)) to achieve a single cell suspension. 10×10^6 cells were spun down and re-suspended in 10 mL of assay medium. Subsequently, the cell suspension was added to the transfection mix tube, and then transferred as a whole to a T75 flask (Greiner), followed by overnight (16-24 hours) incubation at 37° C. and 5% CO2.
For compound screening, the cells were harvested (as described above) and counted. 13×10^6 cells were spun down, the supernatant was aspirated and the cells were re-suspended in 17.3 mL of assay medium obtaining a cell suspension of 0.75×10^6 cells/mL. 80 μL of cell suspension (60,000 cells) was plated per well into a white, flat bottom, tissue culture treated, 96 well screening plates (Greiner).
Test compounds were diluted, starting from a 10 mM dimethylsulf oxide (DMSO) stock solution, to serial dilutions in DMSO at 500× the final test concentration. Subsequently, these solutions were diluted to 5× the final test concentration in two 10-fold-dilution steps in assay medium. The final DMSO concentration of the 5× test compound solution was 1%. […]

Row | Compound | IC50 [nM]
1 | O=C(Cc1ccc(S(=O)(=O)CC2CC2)cc1)Nc1ccc(-c2cnco2)cc1 [Example 43, 2-(4-cyclopropylmethanesulfonylphenyl)-N-[4-(1,3-oxazol-5-yl)phenyl]acetamide] | ≤ 1000
2 | O=C(Cc1ccc(S(=O)(=O)CC2CC2)cc1)Nc1nc(-c2ccccc2)c(Oc2cccnc2)s1 [Example 21, 2-(4-cyclopropylmethanesulfonylphenyl)-N-[4-phenyl-5-(pyridin-3-yloxy)-1,3-thiazol-2-yl]acetamide] | ≤ 1000
3 | O=C(Cc1ccc(S(=O)(=O)NC2CC2)cc1)Nc1ccc(-c2ccc(F)c(F)c2)c(Oc2cccc(Cl)c2)c1 [Example 18, N-[3-(3-chlorophenoxy)-4-(3,4-difluorophenyl)phenyl]-2-[4-(cyclopropylsulfamoyl)phenyl]acetamide] | ≤ 1000
4 | O=C(Cc1ccc(S(=O)(=O)CC2CC2)cc1)Nc1cc(-c2cccnc2)cs1 [Example 25, 2-(4-cyclopropylmethanesulfonylphenyl)-N-[4-(pyridin-3-yl)thiophen-2-yl]acetamide] | ≤ 1000
5 | Cc1ccn(-c2ccc(NC(=O)Cc3ccc(S(=O)(=O)CC4CC4)cc3)cc2)n1 [Example 40, 2-(4-cyclopropylmethanesulfonylphenyl)-N-[4-(3-methyl-1H-pyrazol-1-yl)phenyl]acetamide] | ≤ 1000
6 | O=C(Cc1ccc(S(=O)(=O)CC2CC2)cc1)Nc1ccc(-c2ccccc2)c(Oc2ccccc2)c1 [Example 1, 2-(4-cyclopropylmethanesulfonylphenyl)-N-(3-phenoxy-4-phenylphenyl)acetamide] | ≤ 1000
7 | O=C(Cc1ccc(S(=O)(=O)CC2CC2)cc1)Nc1nc(-c2ccccc2)c(Oc2ccccc2)s1 [Example 20, 2-(4-cyclopropylmethanesulfonylphenyl)-N-(5-phenoxy-4-phenyl-1,3-thiazol-2-yl)acetamide] | ≤ 1000
8 | O=C(Cc1ccc(S(=O)(=O)CC2CC2)cc1)Nc1ccc(-c2ncon2)cc1 [Example 47, 2-(4-cyclopropylmethanesulfonylphenyl)-N-[4-(1,2,4-oxadiazol-3-yl)phenyl]acetamide] | ≤ 1000
9 | O=C(Cc1ccc(S(=O)(=O)NC2CC2)cc1)Nc1nc(-c2ccccc2)c(C(=O)c2ccccc2)s1 [Example 26, N-(5-benzoyl-4-phenyl-1,3-thiazol-2-yl)-2-[4-(cyclopropylsulfamoyl)phenyl]acetamide] | ≤ 100
10 | COc1cccc(Oc2cc(NC(=O)Cc3ccc(S(=O)(=O)CC4CC4)cc3)ccc2-c2cccc(F)c2)c1 [Example 2, 2-(4-cyclopropylmethanesulfonylphenyl)-N-[4-(3-fluorophenyl)-3-(3-methoxyphenoxy)phenyl]acetamide] | ≤ 100

Further lines, results first:

Row | IC50 [nM] | Compound
11 | ≤ 100 | N#Cc1cccc(-c2ccc(NC(=O)Cc3ccc(S(=O)(=O)CC4CC4)cc3)cc2Oc2cccc(Cl)c2)c1 [Example 10, N-[3-(3-chlorophenoxy)-4-(3-cyanophenyl)phenyl]-2-(4-cyclopropylmethanesulfonylphenyl)acetamide]
12 | ≤ 100 | Cc1cc(NC(=O)Cc2ccc(S(=O)(=O)CC3CC3)cc2)nc(C)c1-c1ccccc1OC(F)(F)F [Example 37, 2-(4-cyclopropylmethanesulfonylphenyl)-N-{4,6-dimethyl-5-[2-(trifluoromethoxy)phenyl]pyridin-2-yl}acetamide]
13 | ≤ 100 | O=C(Cc1ccc(S(=O)(=O)CC2CC2)cc1)Nc1ccc(-c2cccc(F)c2)c(Oc2cccc(Cl)c2)c1 [Example 4, N-[3-(3-chlorophenoxy)-4-(3-fluorophenyl)phenyl]-2-(4-cyclopropylmethanesulfonylphenyl)acetamide]
14 | ≤ 100 | Cc1nc(NC(=O)Cc2ccc(S(=O)(=O)CC3CC3)cc2)ccc1-c1ccccc1OC(F)(F)F [Example 32, 2-(4-cyclopropylmethanesulfonylphenyl)-N-{6-methyl-5-[2-(trifluoromethoxy)phenyl]pyridin-2-yl}acetamide]
15 | ≤ 100 | Cc1cc(NC(=O)Cc2ccc(S(=O)(=O)CC3CC3)cc2)ccc1-c1ccccc1OC(F)(F)F [Example 29, 2-(4-cyclopropylmethanesulfonylphenyl)-N-{3-methyl-4-[2-(trifluoromethoxy)phenyl]phenyl}acetamide]
16 | ≤ 100 | O=C(Cc1ccc(S(=O)(=O)CC2CC2)cc1)Nc1ccc(-c2ccc(F)c(F)c2)c(Oc2cccc(Cl)c2)c1 [Example 5, N-[3-(3-chlorophenoxy)-4-(3,4-difluorophenyl)phenyl]-2-(4-cyclopropylmethanesulfonylphenyl)acetamide]
17 | ≤ 100 | O=C(Cc1ccc(S(=O)(=O)CC2CC2)cc1)Nc1cc(Cl)c(-c2ccccc2OC(F)(F)F)c(Cl)c1 [Example 30, 2-(4-cyclopropylmethanesulfonylphenyl)-N-{3,5-dichloro-4-[2-(trifluoromethoxy)phenyl]phenyl}acetamide]
18 | ≤ 100 | O=C(Cc1ccc(S(=O)(=O)CC2CC2)cc1)Nc1ccc(-c2ccc(F)cc2)c(Oc2cccc(F)c2)c1 [Example 12, 2-(4-cyclopropylmethanesulfonylphenyl)-N-[3-(3-fluorophenoxy)-4-(4-fluorophenyl)phenyl]acetamide]
